We go through three compounds from patent publication US5843925A, “Methods for inhibiting angiogenesis, proliferation of endothelial or tumor cells and tumor growth” (American Cyanamid Company, priority 1994, dated 1998).

Format in all cases: cell-based
In one test the test system is MIP. In words: Antiproliferative activity in human tumor cell lines (MIP). The note with it: MIP colon tumor cell line. How it is done:
(§1) PROTOCOLS 1, 2, and 3 are described in greater detail hereinbelow. In general, according to PROTOCOLS 1 and 2, the target ABAE and/or Human Tumor cells are exposed to the compound of Formula I for 48 hours. PROTOCOL 3 exposes ABAE cells to the compounds for 4 days. A detailed description of the protocol is as follows:
(§2) The antiproliferative activity of the compounds of Formula I of the present invention is evaluated in a panel comprised of human tumor cell lines and an adult bovine aortic endothelial cell line (ABAE). The human tumor cell lines are from
(§3) All cell lines are maintained in log phase in RPMI 1640 media, supplemented with 5% fetal calf serum, penicillin/streptomycin and 2 mM L-glutamine. Cultures are renewed after 20 passages with cells from a fresh stock of batch-frozen early passage cells. Cell lines are routinely checked for mycoplasma contamination (Genprobe). In a laminar flow hood, cells (1-5×10^4) are plated into 96-well microtiter plates in a volume of 0.1 ml/well with a bulk microtiter dispenser (Denley). […] At this concentration, dimethylsulfoxide has no effect on cell growth. Compounds are added using a Tomtec dispenser which simultaneously dispenses from one 96-well plate, containing the drug dilutions, to the plates containing the cells. After two days of continuous drug exposure, 50% cold trichloroacetic acid (TCA) is added to 10% final concentration to fix the cells, and after 60 minutes at 4° C., the TCA is aspirated and the plates are washed 5 times with deionized water using a microtiter plate washer. The number of cells on the plate are quantitated using a protein dye-binding assay (Monks et al., 1991). A 0.4% solution of the dye, sulforhodamine B, in glacial acetic acid is added to the plates, and the plates are washed 5 times with 1% glacial acetic acid using the automatic plate washed. The bound stain is solubilized with 0.1 ml of 10 mM Tris base. The optical densities are read from an automatic spectrophotometric plate reader (Dynatech) directly to a main frame computer (VAX 8600).
(§4) Positive controls, that include standard chemotherapeutic drugs (i.e., adriamycin, cisplatin, etc.), are included in every experiment.
(§5) Background optical density measurements (complete media-cells, and complete media+drug-cells) are automatically subtracted from the appropriate control and test wells. Mean values and standard errors are determined from duplicate wells. A measure is also made of the optical density at time when the drugs are added. The number of cells after treatment (P), as % of control, is calculated for every concentration of drug, as follows: [formula] wherein: T is optical density measurement for treated cells after 48 hours;
(§6) C is optical density measurement for untreated cells after 48 hours;
(§7) Co is optical density measurement for cells at the time of drug addition.
(§8) IC50 of growth inhibition is calculated from the sets of P values using the RS-1 data package (BBN Software).
(§9) Antiproliferative Activity in Human Tumor Cell Lines
(§10) The antiproliferative activity of the compounds of Formula I is evaluated in the panel comprised of human tumor cell lines as listed in PROTOCOL 1. This assay is a slight modification of PROTOCOL 1. The modifications include:
(§11) 1) each concentration for each compound is tested in a single well;
(§12) 2) compounds are tested at 20, 4, 0.8, 0.16 microgram/ml and additionally in some experiments at 100 and 0.32 microgram/ml;
(§13) 3) samples are pipetted into a 96-well plate for each of the cell lines by a Beckman Biomek 1000 SL robot;
(§14) 4) after fixing with TCA each well is washed with 0.35 ml distilled water twice, not five times;
(§15) 5) after staining with sulforhodamine B each well is washed 3 times, not five times;
(§16) 6) the growth inhibition (I) as % of control, is calculated using the RS-1 data package (BBN Software), for every concentration of drug, as follows: [formula] wherein: T is optical density measurement for treated cells after 48 hours; […]

The test system of test [1] is Adult Bovine Aortic Endothelial (ABAE) cell line. In words: Antiproliferative activity in Adult Bovine Aortic Endothelial (ABAE) cell line, PROTOCOL 3. The following applies: for IC50: Bos taurus, 96 h, ABAE cells. The procedure: (§17) The antiproliferative activity of the compounds of Formula I in an Adult Bovine Aortic Endothelial (ABAE) cell line and in Human Tumor cells lines is evaluated in three similar assays that measure growth inhibition. The assays are identified as follows:
as §1
Antiproliferative Activity in Adult Bovine Aortic Endothelial (ABAE) Cell Line
ABAE cells are grown in DMEM media (Mediatech Washington, D.C.) supplemented with 10% calf serum (Hyclone). ABAE cells are plated in 24-well dishes at 8,000 cells/well, followed by the addition of increasing concentrations of 7-[substituted amino]-9-[(substituted glycyl)amido]-6-demethyl-6-deoxytetra-cyclines. After four days, the cells are detached and counted. […] The growth inhibition (I) as % of control is calculated as follows: [formula] wherein: Nc is the number of cells in untreated wells;
Nt is the number of cells in treated wells;
No is the number of plated cells.
IC50 of growth inhibition is determined from the sets of I values plotted by Kaleidograph software (Abelbeck Software).
Table 2 presents the results depicting the antiproliferative activity of the compounds of Formula I against an adult bovine aortic endothelial cell line (ABAE), as evaluated by PROTOCOL 1 and PROTOCOL 3. The results are presented in terms of IC50 and are as follows.

For a further test, the system named is A2780/DDP. The test is described as follows: Antiproliferative activity in human tumor cell lines (A2780/DDP). The note with it: A2780/DDP ovarian tumor cell line. How it is done: as §1, §2
(§18) Cultures are renewed after 20 passages with cells from a fresh stock of batch-frozen early passage cells. Cell lines are routinely checked for mycoplasma contamination (Genprobe). In a laminar flow hood, cells (1-5×10^4) are plated into 96-well microtiter plates in a volume of 0.1 ml/well with a bulk microtiter dispenser (Denley). […] Compounds are added using a Tomtec dispenser which simultaneously dispenses from one 96-well plate, containing the drug dilutions, to the plates containing the cells. After two days of continuous drug exposure, 50% cold trichloroacetic acid (TCA) is added to 10% final concentration to fix the cells, and after 60 minutes at 4° C., the TCA is aspirated and the plates are washed 5 times with deionized water using a microtiter plate washer. […] A 0.4% solution of the dye, sulforhodamine B, in […] is added to the plates, and the plates are washed 5 times with 1% glacial acetic acid using the automatic plate washed. The bound stain is solubilized with 0.1 ml of 10 mM Tris base. The optical densities are read from an automatic spectrophotometric plate reader (Dynatech) directly to a main frame computer (VAX 8600).
as §4, §5, §6, §7, §8, §9, §10, §11, §12, §13, §14, §15
(§19) 6) the growth inhibition (I) as % of control, is calculated using the RS-1 data package (BBN Software), for every concentration of drug, as follows: [formula] wherein: T is optical density measurement for treated cells after 48 hours;
(§20) 7) IC50 of growth inhibition is determined graphically from dose response curves, as is known in the art.

Another test relates to Human Tumor cell lines. The test is described as follows: Antiproliferative activity in panel of human tumor cell lines (PROTOCOL 1 and PROTOCOL 2). The note with it: Homo sapiens; average over the tumor cell lines of Table 3. How it is done: as §17, §1, §2, §3, §4, §5, §6, §7, §8, §9, §10, §11, §12, §13, §14
5) after staining with sulforhodamine B each well is washed 3 times, not five times; […]

For another test, the system named is A2780S. In words: Antiproliferative activity in human tumor cell lines (A2780S). The following applies: A2780S ovarian tumor cell line. How it is done: as §1, §2, §18, §4, §5, §6, §7, §8, §9, §10, §11, §12, §13, §14, §15, §19, §20
For a further test, the system named is SW620. The test is described as follows: Antiproliferative activity in human tumor cell lines (SW620). The note with it: SW-620, SW620 colon tumor cell line. How it is done:
as §1, §2, §3, §4, §5, §6, §7, §8, §9, §10, §11, §12, §13, §14, §15, §16

The next test has as its system CACO2. The test is described as follows: Antiproliferative activity in human tumor cell lines (CACO2). The note with it: Caco-2, CACO2 colon tumor cell line. The procedure:
as §1, §2, §3, §4, §5, §6, §7, §8, §9, §10, §11, §12, §13, §14, §15, §16

Molecules are shown by their SMILES. Counter-ions that a name gives are not always drawn. Like-named read-outs stand apart in the source and are kept apart here.

On to `CN(C)CC(=O)Nc1cc(N(C)C)c2c(c1O)C(=O)C1=C(O)[C@]3(O)C(=O)C(C(N)=O)=C(O)[C@@H](N(C)C)C3CC1C2` (stereo partly drawn) [Example 2, [4S-(4a,12aa-1-4,7-Bis(dimethylamino)-9-[[(dimethylamino)acetyl]amino]]-1,4,,4a,5,5a,6,11,12a-octahvdro-3,10,12,12a-tetrahydroxy-1,11-dioxo-2-napththacenecarboxamidedihydrochloride], for which the IC50 in the test on MIP was 4.6 µg/mL; in test [1] (4 day assay (Protocol 3), FIG. 1 text, read-out: inhibits 50% of cell growth at), about 3 µg/mL; in test [1] (4 days exposure, read-out: IC50 PROTOCOL 3), 3 µg/mL; with A2780/DDP, 7 µg/mL; in the test on Human Tumor cell lines, 5.8 µg/mL; in the test on A2780S, 6.5 µg/mL. The IC50 was determined as 5.6 µg/mL in the test on SW620 and 5.1 µg/mL in the test on CACO2. Also, the “activity upon incubation with cells” value in test [1] (4 day assay (Protocol 3)) is reported as “retains its activity”.

With `CCCCCCNCC(=O)Nc1cc(N(C)C)c2c(c1O)C(=O)C1=C(O)[C@]3(O)C(=O)C(C(N)=O)=C(O)[C@@H](N(C)C)C3CC1C2` (stereo partly drawn) [Example 4, [4S-(4α,12aα)]-4,7-Bis(dimethylamino)-9-[(hexylamino)acetyl]amino]-1,4,4a,5,5a,6,11,12a-octahydro-3,10,12,12a-tetrahydroxy-1,11-dioxo-2-naphthacenecarboxamide dihydrochloride], the IC50 in the test with MIP was 2.8 µg/mL; in the test on A2780/DDP, 2.3 µg/mL; in the test with Human Tumor cell lines it was 2.3 µg/mL; with A2780S it was 2.3 µg/mL; in the test with SW620, 2.7 µg/mL; in the test with CACO2, 1.9 µg/mL.

Regarding `CCCCCCCNCC(=O)Nc1cc(N(C)C)c2c(c1O)C(=O)C1=C(O)[C@]3(O)C(=O)C(C(N)=O)=C(O)[C@@H](N(C)C)C3CC1C2` (stereo partly drawn) [Example 5, [4S-(4α,12aα)]-4,7-Bis(dimethylamino)-9-[[(heptylamino)acetyl]amino]-1,4,4a,5,5a,6,11,12a-octahydro-3,10,12,12a-tetrahydroxy-1,11-dioxo-2-naphthacenecarboxamide dihydrochloride], the IC50 in the test on MIP worked out at 3.2 µg/mL; with A2780/DDP, 2.5 µg/mL; in the test on Human Tumor cell lines, 2.4 µg/mL; in the test with A2780S, 2.5 µg/mL; with SW620, 2.4 µg/mL; with CACO2 it was 3.7 µg/mL.
